These results are taken from patent US5834521A, “Substituted dibenz (A F)azulenes and methods of preparation” (Ortho Pharmaceutical Corporation, priority 1996, dated 1998).

pIC50: −log10 of the molar value.

The target in this test is T1, Progestin Receptor (Oryctolagus cuniculus, UniProt P06186).
T1 construct: The high speed supernatant fraction was used as the receptor preparation; from tissue; host or cells: uterus of New Zealand rabbits, 200,000×g supernatant (cytosol)
T1 sequence (P06186 1-930): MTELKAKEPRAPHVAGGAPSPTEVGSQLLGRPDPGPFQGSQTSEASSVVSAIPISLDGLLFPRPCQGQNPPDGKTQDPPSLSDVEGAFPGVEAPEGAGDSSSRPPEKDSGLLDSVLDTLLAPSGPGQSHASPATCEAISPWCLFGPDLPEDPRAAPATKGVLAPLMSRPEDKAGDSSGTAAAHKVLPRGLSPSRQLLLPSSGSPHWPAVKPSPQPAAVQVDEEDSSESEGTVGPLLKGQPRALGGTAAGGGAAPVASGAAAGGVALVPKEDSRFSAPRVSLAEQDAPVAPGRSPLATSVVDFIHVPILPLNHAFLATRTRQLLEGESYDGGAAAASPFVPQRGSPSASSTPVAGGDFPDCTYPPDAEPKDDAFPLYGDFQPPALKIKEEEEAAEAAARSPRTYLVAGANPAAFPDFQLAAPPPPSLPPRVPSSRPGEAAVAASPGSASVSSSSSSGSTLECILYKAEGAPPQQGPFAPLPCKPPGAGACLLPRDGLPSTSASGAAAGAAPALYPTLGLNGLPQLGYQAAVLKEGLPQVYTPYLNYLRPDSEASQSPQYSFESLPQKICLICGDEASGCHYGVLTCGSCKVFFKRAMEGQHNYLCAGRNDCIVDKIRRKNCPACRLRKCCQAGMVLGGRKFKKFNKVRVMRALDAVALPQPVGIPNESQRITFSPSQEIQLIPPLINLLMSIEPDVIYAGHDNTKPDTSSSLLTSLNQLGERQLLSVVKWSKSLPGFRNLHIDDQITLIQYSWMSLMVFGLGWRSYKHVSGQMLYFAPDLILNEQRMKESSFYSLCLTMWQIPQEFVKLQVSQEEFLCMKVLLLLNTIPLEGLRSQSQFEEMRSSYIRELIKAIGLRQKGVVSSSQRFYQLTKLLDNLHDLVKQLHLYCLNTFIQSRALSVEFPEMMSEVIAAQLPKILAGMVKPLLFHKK
In words: Progestin Receptor Binding (competitive binding, 3H-promegestone, rabbit uterus receptor preparation). Also on record: species or system New Zealand rabbits. The settings on record: 3H-promegestone displacement, 4° C., 18 h. The procedure: Progestin Receptor Binding
The procedure used was essentially that of J. L. McGuire, C.
Uteri from New Zealand rabbits (1.5 to 2.5 kg) were placed in a cold buffer A (0.01 mol Tris-HCl, pH 8.0, 0.001 mol EDTA, 0.25 mol sucrose). The uteri were minced, washed and homogenized in cold buffer A. The homogenate (2 g wet tissue/mL buffer) was centrifuged at 200,000×g for 1 h at 4° C. The high speed supernatant fraction was used as the receptor preparation.
A competitive binding assay was performed by mixing 3H-promegestone with the receptor preparation and adding a known amount of unlabeled compound. This mixture was incubated at 4° C. for 18 h. The compounds bound to the receptor were separated from those which were free in solution using dextran coated charcoal and the amount of isotope bound to the receptor was determined by scintillation counting. The extent of the compound's interaction with the receptor is measured as the percent reduction in the total isotope bound caused by the unlabeled test compound as compared to the control levels. The receptor screen consists of measuring the reduction in the total isotope bound caused by the unlabeled test compound at […] final concentrations.
With `CC[C@]12Cc3ccccc3C1=C[C@@H](C)c1ccc(OC)cc1C2` (relative stereo) [Compound 17], the pIC50 (in general, the negative decadic logarithm of the IC50, by convention in mol/L) was 6.80. For the compound `CC1CC2c3ccccc3CC2(C)Cc2cc(N)ccc21` (stereo not shown) [Compound 89, 9-Amino-6,11a-dimethyl-4b,5,6,11,11a,12-hexahydrodibenz[a,f]azulene], the pIC50 was 6.86. For `C=C1C=C2c3ccccc3CC2(C)Cc2cc(OC)ccc21` (stereo not shown) [Compound 105, 6,11,11a,12-Tetrahydro-6-methenyl-9-methoxy-11a-methyldibenz[a,f]azulene] the value was 6.17. For `COc1ccc2c(c1)C[C@@]1(C)Cc3ccccc3C1[C@@H](O)[C@H]2C` (relative stereo) [Compound 64, 6,11a-Dimethyl-5-hydroxy-9-methoxy-4b,5,6,11,11a,12-hexahydrodibenz[a,f]azulene (β-OH)] the value was 5.77; for `CCCC12Cc3cc(OC(C)=O)ccc3CCC1c1ccccc1C2` (stereo not shown) [Compound 50], 7.38. For `COc1ccc2c(c1)C[C@@]1(C)Cc3cc(F)ccc3[C@H]1C[C@H]2C` (relative stereo) [Compound 47] the value was 7.60. Take `COc1ccc2c(c1)C[C@@]1(C)Cc3ccccc3C1=C[C@H]2C` (relative stereo) [Compound 3]: the pIC50 is 7.40. Regarding `COc1cc2c(cc1[N+](=O)[O-])C(C)CC1c3ccccc3CC1(C)C2` (stereo not shown) [Compound 102, 4b,5,6,11,11a,12-Hexahydro-9-methoxy-6,11a-dimethyl-8-nitro-dibenz[a,f]azulene], the pIC50 is 5.83. For “6,11,11a,12-Tetrahydro-8-carboxy-9-methoxy-6,11a-dimethyldibenz[a,f]azulene [Compound 80]” the value was 5.00; for `COc1ccc2c(c1)C[C@@]1(C)Cc3ccccc3[C@H]1C[C@H]2C` (relative stereo) [Compound 8], 6.32. For `CCCC12Cc3cc(F)ccc3C1=CCc1c(cccc1OC)C2` (stereo not shown) [Compound 56] the value was 7.47; for `COc1cc2c(cc1C(C)=O)[C@H](C)C=C1c3ccccc3C[C@]1(C)C2` (relative stereo) [Compound 44], 6.72.

In the case of `COc1ccc2c(c1)CC1(C)Cc3cc(OC)ccc3C1C(O)C2C` (stereo not shown) [Compound 19], the pIC50 is 6.18. Then `C[C@@H]1CC2c3ccccc3C[C@]2(C)Cc2cc(O)ccc21` (stereo partly shown) [Compound 12], with 6.34. For `CC1CC2c3ccccc3CC2(C)Cc2c1cc([N+](=O)[O-])c(O)c2[N+](=O)[O-]` (stereo not shown) [Compound 101, 4b,5,6,11,11a,12-Hexahydro-9-hydroxy-6,11a-dimethyl-8,10-dinitrodibenz[a,f]azulene] the value was 6.21; for `CCOP(=O)(OCC)Oc1ccc2c(c1)CC1(C)Cc3cc(F)ccc3C1CC2C` (stereo not shown) [Compound 49, 9-(2-Fluoro-6,11,11a,12-tetrahydro-6,11a-dimethyl)-dibenz[a,f]azulenyl diethyl phosphoric acid], 7.14; for `CC1CC2c3ccc(F)cc3CC2(C)Cc2cc(OCCN(C)C)ccc21` (stereo not shown) [Compound 55, 6,11a-Dimethyl-9-(N,N'-dimethylamino)ethoxy-2-fluoro-4b,5,6,11,11a,12-hexahydro-6,11a-dimethyldibenz[a,f]-azulene], 6.27. Then `CC12Cc3ccccc3C1CCc1c(N)cccc1C2` (stereo not shown) [Compound 96], with 7.47; and `CC1CC2c3ccc(F)cc3CC2(C)Cc2ccccc21` (stereo not shown) [Compound 69, 6,11a-Dimethyl-2-fluoro-4b,5,6,11,11a,12-hexahydrodibenz[a,f]azulene], with 7.43; and `CC[C@]12Cc3ccccc3C1C[C@@H](C)c1ccc(OC)cc1C2` (stereo partly shown) [Compound 23], with 6.38. Compound `CCCC12Cc3cc(OC)ccc3C(C)CC1c1ccccc1C2` (stereo not shown) [Compound 48] gave a pIC50 of 6.74.

`CCC[C@]12Cc3ccccc3C1=C[C@@H](C)c1ccc(Br)cc1C2` (relative stereo) [Compound 92] had a pIC50 of 6.86. In turn, `CC(=O)Nc1cc2c(cc1[N+](=O)[O-])C(C)CC1c3ccccc3CC1(C)C2` (stereo not shown) [Compound 91] showed a negative logarithm of the IC50 (pIC50) of 6.94. Then `COc1ccc2c(c1)CC1(C)Cc3ccccc3C1C(=O)C2C` (stereo not shown) [Compound 14, 6,11a-Dimethyl-9-methoxy-5-oxo-4b,5,6,11,11a,12-hexahydrodibenz[a,f]azulene], with 6.67. For `COc1ccc2c(c1)CC1(C)Cc3ccccc3C1=CC2` (stereo not shown) [Compound 2, 9-Methoxy-11a-methyl-6,11,11a,12-tetrahydrodibenz[a,f]azulene] the value was 6.62. `CC1CC2c3ccccc3CC2(C)Cc2ccccc21` (stereo not shown) [Compound 28, 6,11a,-Dimethyl-4b,5,6,11,11a,12-hexahydrodibenz[a,f]azulene] had a pIC50 of 7.49. For `CCC[C@]12Cc3ccccc3C1=C[C@@H](C)c1ccc(I)cc1C2` (relative stereo) [Compound 99] the value was 7.05. Then `COc1cc2c(cc1[N+](=O)[O-])C(C)C(O)C1c3ccccc3CC1(C)C2` (stereo not shown) [Compound 25, 6,11a-Dimethyl-5-hydroxy-9-methoxy-8-nitro-4b,5,6,11,11a,12-hexahydrodibenz[a,f]azulene], with 6.92; and `CCC[C@@]12Cc3cc(OC)ccc3CC[C@@H]1c1ccc(F)cc1C2` (relative stereo) [Compound 72], with 7.00. Then `CCC[C@@]12Cc3cc(OC)ccc3CC[C@@H]1c1ccc(OC)cc1C2` (relative stereo) [Compound 71], with 6.36; and `CC1c2cc([N+](=O)[O-])c(O)cc2CC2(C)Cc3ccccc3C2C1O` (stereo not shown) [Compound 24, 6,11a-Dimethyl-5,9-dihydroxy-8-nitro-4b,5,6,11,11a,12-hexahydrodibenz[a,f]azulene], with 6.59; and `CC(=O)Nc1ccc2c(c1)CC1(C)Cc3ccccc3C1=CC2C` (stereo not shown) [Compound 83, 9-Acetamido-6,11,11a,12-tetrahydro-6,11a-dimethyldibenz[a,f]azulene], with 5.71. Consider `CC1CC2c3ccccc3CC2(C)Cc2cc(OCCN(C)C)ccc21` (stereo not shown) [Compound 51], for which the pIC50 is 6.39. For `CCC[C@]12Cc3ccccc3C1=C[C@@H](C)c1ccc(NC(C)=O)cc1C2` (relative stereo) [Compound 84] the value was 6.79; for `CCCC12Cc3cc(O)ccc3CCC1c1ccccc1C2` (stereo not shown) [Compound 40], 7.29; for `CC[C@]12Cc3cc(OC)ccc3C1=C[C@@H](C)c1ccc(OC)cc1C2` (relative stereo) [Compound 22], 6.38. For `CC[C@]12Cc3ccccc3C1C[C@@H](C)c1ccc(O)cc1C2` (stereo partly shown) [Compound 46] the value was 7.19; for `CCCC12Cc3cc(OC)ccc3CC=C1c1ccc(F)cc1C2` (stereo not shown) [Compound 57], 7.17. For the compound `COc1ccc2c(c1)CC1(C)Cc3ccccc3C1CC2C` (stereo not shown) [Compound 107, 4b,5,6,11,11a,12-Hexahydro-9-methoxy-6,11a-dimethyldibenz-[a,f]azulene], the pIC50 was 6.17. The compound `CC(=O)Oc1cc2c(c(OC(C)=O)c1)[C@H](C)C[C@@H]1c3ccccc3C[C@]1(C)C2` (relative stereo) [Compound 87] showed a pIC50 of 6.14. The pIC50 values of the last two compounds are within 0.2 log units of each other. For `COc1cc2c(cc1[N+](=O)[O-])C(C)CC1c3ccc(F)cc3CC1(C)C2` (stereo not shown) [Compound 65, 6,11a-Dimethyl-2-fluoro-8-nitro-9-methoxy-4b,5,6,11,11a,12-hexahydrodibenz[a,f]azulene 1/4 Hydrate] the value was 8.05; for `COc1ccc2c(c1[N+](=O)[O-])CC1(C)Cc3ccccc3C1C(O[N+](=O)[O-])C2C` (stereo not shown) [Compound 82, 5-(6,11a-Dimethyl-9-methoxy-10-nitro-4b-5,6,11,11a,12-hexahydro)dibenz[a,f]azulenyl nitrate ester], 7.00.

Regarding `COc1cc2c(cc1C(C)=O)C(C)CC1c3ccccc3CC1(C)C2` (stereo not shown) [Compound 61, 8-Acetyl-4b,5,6,11,11a,12-hexahydro-6,11a-dimethyl-9-methoxydibenz[a,f]azulene], the negative-log IC50 (pIC50) is 6.44.
